# According to patent publication US6881553B2 (priority 1999, dated 2005):
# Several values for one entry are separate records, joined by “and”; a condition that tells them apart may be missing. Equal entries are not always repeated. Entries after “also recorded” stand apart in the source; their conditions may differ. Where two headings read alike, the source gives them in different places.
# Assays:
# [1] = tested on: L. pneumophila; conditions: cited from earlier work
# [2] = tested on: L. pneumophila F4b; assay type: cell-based, Legionella pneumophila; conditions: disks 2.5 mg or 1.0 mg, BCYE plates, four days
# [3] = tested on: L. pneumophila Philadelphia 1; assay type: cell-based, Legionella pneumophila; conditions: disks 2.5 mg or 1.0 mg, BCYE plates, four days
# [4] = tested on: L. pneumophila Philadelphia 1; test: microbe, parasite or virus in culture; assay type: cell-based, Legionella pneumophila; conditions: for inhibition of 14C-acetate incorporation: 0.5 mM
# [5] = tested on: L. pneumophila FabT; assay type: biochemical, Legionella pneumophila; conditions: dodecenoyl-CoA substrate, 100 μM NADH, pH 7.4
# [6] = tested on: L. pneumophila FabX; assay type: biochemical, Legionella pneumophila; conditions: dodecenoyl-CoA substrate, 100 μM NADH, pH 7.4
# [7] = molecular target: M. tuberculosis InhA (Mycobacterium tuberculosis, UniProt P9WGR1); conditions: pH 7.4
# Chain of M. tuberculosis InhA (P9WGR1 whole entry, looked up): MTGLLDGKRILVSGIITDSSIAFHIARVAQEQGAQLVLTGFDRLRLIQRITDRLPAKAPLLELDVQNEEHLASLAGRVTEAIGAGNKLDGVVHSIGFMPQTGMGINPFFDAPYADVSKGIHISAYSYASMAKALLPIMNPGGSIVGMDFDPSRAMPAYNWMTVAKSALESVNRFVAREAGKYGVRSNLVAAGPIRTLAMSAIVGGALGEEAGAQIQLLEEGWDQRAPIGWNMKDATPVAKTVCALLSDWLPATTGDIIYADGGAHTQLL
# [8] = tested on: L. pneumophila lysates; assay type: biochemical, Legionella pneumophila; conditions: for inhibition of 14C-acetate incorporation, lysates compared with whole cells: 0.4 mM or 2.0 mM
# [9] = tested on: L. pneumophila Philadelphia 1; test: microbe, parasite or virus in culture; assay type: cell-based, Legionella pneumophila; conditions: for MIC90: Legionella pneumophila, 48 h, read-out: MIC which inhibited 90% of L. pneumophila growth (MIC90)
# [10] = tested on: bacterial species; assay type: cell-based
# [11] = tested on: Saccharomyces cerevisiae; test: Zone of inhibition assay on SAB medium
# [12] = tested on: Pseudomonas aeruginosa; assay type: cell-based
# [13] = tested on: HL-60 cells
# [14] = tested on: J774 cells; conditions: treatment of J774 cells with GFZ; cited from earlier work
# [15] = tested on: Nocardia sp.; assay type: cell-based
# [16] = tested on: Legionella sp. strains; assay type: cell-based
# [17] = tested on: L. pneumophila in PMA-differentiated HL-60 cells; assay type: cell-based, Legionella pneumophila
# [18] = tested on: Candida albicans; test: Zone of inhibition assay on SAB medium
# [19] = tested on: atypical mycobacteria; test: Zone of inhibition assay; assay type: cell-based; conditions: standard laboratory media
# [20] = tested on: L. pneumophila; assay type: cell-based, Legionella pneumophila; conditions: GFZ 30 μg/ml, three days on CYE agar
# [21] = tested on: Listeria monocytogenes in mouse J774 macrophage-like cells; conditions: GFZ in combination with norfloxacin; cited from earlier work
# [22] = mouse, in vivo; cited from earlier work
# [23] = tested on: M. tuberculosis strains; test: M. tuberculosis 7H9 broth assay; assay type: cell-based, Mycobacterium tuberculosis; conditions: 21 days, turbidity
# [24] = tested on: L. pneumophila in human monocyte-derived macrophages; assay type: cell-based, Legionella pneumophila
# [25] = tested on: L. pneumophila F4b; test: microbe, parasite or virus in culture; assay type: cell-based; conditions: Legionella pneumophila, read-out: concentration giving 50% inhibition of 14C-acetate incorporation
# [26] = tested on: M. tuberculosis strains; test: M. tuberculosis susceptibility assay on Middlebrook agar; assay type: cell-based, Mycobacterium tuberculosis; conditions: 27 strains, OADC Middlebrook agar, three weeks 37° C.
# [27] = Solubility observations in media; assay type: physicochemical; conditions: aqueous medium
# [28] = molecular target: L. pneumophila FabX enoyl reductase (His-tagged FabX); assay type: biochemical; conditions: competitive with regard to DCA (dodecenoyl-CoA) substrate; 100 μM NADH, 100 mM NaPO4 pH 7.4; value (+/- spread)
# [29] = molecular target: M. tuberculosis InhA enoyl reductase (Mycobacterium tuberculosis, UniProt P9WGR1); test: biochemical
# Chain of M. tuberculosis InhA enoyl reductase (P9WGR1 whole entry, looked up): as above
# [30] = molecular target: L. pneumophila FabT enoyl reductase (His-tagged FabT) (Legionella pneumophila, UniProt Q5ZUE4); test: biochemical
# Chain of L. pneumophila FabT enoyl reductase (His-tagged FabT) (Q5ZUE4 1-268): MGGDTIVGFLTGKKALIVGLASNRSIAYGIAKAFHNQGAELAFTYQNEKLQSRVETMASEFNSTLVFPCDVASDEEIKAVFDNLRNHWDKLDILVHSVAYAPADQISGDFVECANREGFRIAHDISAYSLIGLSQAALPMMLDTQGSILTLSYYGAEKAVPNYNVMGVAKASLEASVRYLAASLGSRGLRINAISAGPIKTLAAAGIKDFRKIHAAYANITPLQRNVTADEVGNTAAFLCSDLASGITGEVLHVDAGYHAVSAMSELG
# [31] = tested on: L. pneumophila; conditions: cited from earlier work; remark: listed apart in the source
structure (smiles),measurement,setting,value
CC[C@H]1OC(=O)[C@H](C)[C@@H](O[C@H]2C[C@@](C)(OC)[C@@H](O)[C@H](C)O2)[C@H](C)[C@@H](O[C@@H]2O[C@H](C)C[C@H](N(C)C)[C@H]2O)[C@](C)(O)C[C@@H](C)C(=O)[C@H](C)[C@@H](O)[C@]1(C)O [erythromycin],concentration inhibiting extracellular growth,[1],0.2 µg/mL
"O=C(O)CCc1ccc(O)cc1 [Analog 4-HPA, 4-hydroxyphenylpropionic acid]",antibacterial activity by zone of inhibition,[2],equally inhibitory
same,antibacterial activity by zone of inhibition,[3],equally inhibitory
"Nc1ccc(C(=O)O)c(O)c1 [P-aminosalicyclic acid, para-aminosalicylate]",inhibition of 14C-acetate incorporation,[4],some efficacy
Cc1ccc(C)c(OCCCC(C)(C)C(=O)SCCNC(=O)CCNC(=O)[C@H](O)C(C)(C)COP(=O)(O)OP(=O)(O)OC[C@H]2O[C@@H](n3cnc4c(N)ncnc43)[C@H](O)[C@@H]2OP(=O)(O)O)c1 [GFZ-CoA],mode of inhibition of enoyl reductase activity,[5],competitive inhibitor
same,mode of inhibition of enoyl reductase activity,[6],competitive inhibitor
same,mode of inhibition of enoyl reductase activity,[7],competitive inhibitor
"C/C=C/C/C=C/CCC(=O)[C@H]1O[C@H]1C(N)=O [Cerulenin, cerulenin]","inhibition of 14C-acetate incorporation, lysates compared with whole cells",[8],less effective inhibitor
same,inhibition of 14C-acetate incorporation relative to GFZ at 100 μg/ml,[4]; 100 μg/ml (0.45 mM),slightly better inhibitor
"O=C(O)CCc1ccc(O)c(O)c1 [3,4-HPA, 3,4-dihydroxyphenyl propionic acid]",antibacterial activity by zone of inhibition,[2],equally inhibitory
same,antibacterial activity by zone of inhibition,[3],equally inhibitory
"Cc1ccc(C)c(OCCCC(C)(C)C(=O)O)c1 [GFZ, gemfibrozil]",inhibition of 14C-acetate incorporation into TCA precipitable material in a lysate,[8]; 0.4 mM,15%
same,"inhibition of 14C-acetate incorporation, lysates compared with whole cells",[8],not as effective an inhibitor in these lysates as it was in whole cells
same,"inhibition of 14C-acetate incorporation in lysate, comparison between inhibitors",[8]; 2 mM,not as potent as cerulenin in lysates
same,bacteriostatic or bacteriocidal effect,"[9]; 10-200 μg/ml, aliquots of MIC cultures plated on CYE",bacteriostatic
same,MIC90,[9],10 µg/mL
same,IC50,"[4]; Legionella pneumophila, 0.25 h, read-out: concentration giving fifty percent inhibition of 14C-acetate incorporation",25 µg/mL
same,IC50,"[4]; Legionella pneumophila, 1 h, read-out: concentration giving 50% inhibition of 14C-acetate incorporation",10 µg/mL and 40 µM
same,IC50,"[4]; Legionella pneumophila, read-out: concentration giving 50% inhibition of 14C-acetate incorporation",100 µM and 25 µg/mL
same,inhibition at 400 µM,"[4]; Legionella pneumophila, read-out: inhibition of 14C-acetate incorporation into TCA precipitable material in whole cells",> 90%
same,lowest concentration that inhibited 14C-acetate incorporation,[4]; within 15 minutes,10 µg/mL
same,sensitivity of nonpathogenic bacterial strains,[10],four of the eight strains tested demonstrated sensitivity
same,share of bacterial species tested that demonstrated susceptibility,[10],33%
same,susceptibility,[11]; SAB medium buffered to pH 7,susceptible
same,zone of inhibition,[11]; unbuffered medium,No zone of inhibition
same,growth inhibition,[12],did not inhibit the growth
same,viability of uninfected HL-60 cells,[13],did not affect the viability
same,protection of infected HL-60 cells from L. pneumophila cytolytic effects,"[13]; 100 μg/ml, infection multiplicity of 0.1 bacteria/cell, 5 days",protected infected HL-60 cells
same,increase of intracellular concentration of norfloxacin,[14],fourfold
same,zone of inhibition,[15],40-60 mm
same,sensitivity of Legionella sp. strains (zone of inhibition),[16],All 39 Legionella sp. strains were sensitive
same,L. pneumophila intracellular growth,[17]; GFZ 0.4 mM (100 μg/ml),inhibition of L. pneumophila intracellular growth
same,concentration required to inhibit intracellular growth within macrophages,[17]; macrophages,100 µg/mL
same,time after infection at which inhibition of bacterial growth was seen,"[17]; single-round growth assay with gentamicin, GFZ 0.4 mM (100 μg/ml)",≤ 8 h
same,susceptibility,[18]; SAB medium buffered to pH 7,susceptible
same,zone of inhibition,[18]; unbuffered medium,No zone of inhibition
same,susceptibility,[19],resistant
same,change in amount of 3-HB-propyl ester,[20],fifty-fold increase
same,reduction of the norfloxacin concentration required to block intracellular growth,[21],fourfold
same,LD50,[22],250 mg/20 gm mouse per day
same,growth of M. tuberculosis strains in 7H9 broth,[23],inhibits the growth
same,intracellular growth of L. pneumophila in human macrophages,[24]; 0.4 mM (100 μg/ml),inhibited the intracellular growth
same,intracellular growth of L. pneumophila in human macrophages,[24]; 0.6 mM compared with 0.4 mM,no further reduction in L. pneumophila colonies
same,IC50,[25],100 µg/mL and 400 µM
same,concentration that completely inhibited growth of all M. tuberculosis strains,[26],100 to 200 µg/mL
same,solubility in relation to pH,[27],insoluble at an acid pH; also recorded: decreases as pH decreases
Cc1ccc(C)c(OCCCC(C)(C)C(=O)SCCNC(=O)CCNC(=O)[C@H](O)C(C)(C)COP(=O)(O)OP(=O)(O)OC[C@H]2O[C@@H](n3cnc4c(N)ncnc43)[C@H](O)[C@@H]2OP(=O)(O)O)c1 [GFZ],Ki,[28],122 µM
same,Ki,[29],210 µM
same,Ki,[30],127 µM
O=C(O)c1ccccc1O [2-hydroxybenzoic acid],inhibition of 14C-acetate incorporation,[4],some efficacy
same,antibacterial activity by zone of inhibition,[2],more sensitive to 2-hydroxybenzoic acid (salicylic acid) than GFZ
same,antibacterial activity by zone of inhibition,[3],more sensitive to 2-hydroxybenzoic acid (salicylic acid) than GFZ
CC(C)(Oc1ccc(CCNC(=O)c2ccc(Cl)cc2)cc1)C(=O)O [bezafibrate],MIC90,[9],250 µg/mL
CO[C@H]1/C=C/O[C@@]2(C)Oc3c(C)c(O)c4c(O)c(c(/C=N/N5CCN(C)CC5)c(O)c4c3C2=O)NC(=O)/C(C)=C\C=C\[C@H](C)[C@H](O)[C@@H](C)[C@@H](O)[C@@H](C)[C@H](OC(C)=O)[C@@H]1C [rifampin],concentration inhibiting extracellular growth,[1],0.002 µg/mL
same,concentration inhibiting intracellular growth,[31],0.1 µg/mL
CCOC(=O)C(C)(C)Oc1ccc(Cl)cc1 [clofibrate],MIC which inhibited 90% of L. pneumophila growth (MIC90),"[9]; AYE broth, 48 hrs at 37° C.",100 µg/mL
same,inhibition of 14C-acetate incorporation,[4],some efficacy
same,effectiveness at inhibiting intracellular growth relative to GFZ,[24],much less effective than GFZ
same,intracellular growth of L. pneumophila in human macrophages,[24]; 1 mM,able to slow L. pneumophila growth
